Data: patent US7807663B2, “Therapeutic agents for diabetes” (Ajinomoto Co., Inc., priority 2003, dated 2010)

Test system: adipose cells of rats
Experiment: Evaluation of the sugar transportation activity (2-[14C(U)]-deoxy-D-glucose incorporation)
Format: cell-based, Wistar rats
Conditions: concentration with reinforcing effect of 50% of that of insulin (100 nM) = 100%; rat adipose cells, 30 min pre-culture at 37° C., 5 min uptake
Experimental: 1. Preparation of Adipose Cells of Rats:
After the decapitation and venesection of 6 male Wistar rats (body weight: 150 to 200 g), an incision was made in the abdomen of each rat to extract 6 g in total of epididymal adipose tissues. The tissues were finely cut into 2 mm×2 mm pieces in 6 ml of KRH (Krebs-Ringer Hepes, composition: 130 mM of sodium chloride, 4.7 mM of potassium chloride, 1.2 mM of potassium dihydrogenphosphate, 1.2 mM of magnesium sulfate, 1 mM of calcium chloride and 25 mM of Hepes, pH=7.6) containing 5% of BSA (bovine serum albumin). 24 mg of collagenase (type I) was added thereto and the digestion treatment was conducted for about 40 minutes to obtain about 6 ml of isolated adipose cells. The collagenase was removed by the buffer exchange. 2% BSA/KRH solution was added to the residue for the re-suspension to obtain 45 ml of an adipose cell suspension.
2. Evaluation of the Sugar Transportation Activity:
The sugar transportation activity of the compound (I) of the present invention was evaluated with reference to a method described in a literature [Annual Review of Biochemistry, Vol. 55, p. 1059 (1986)]. In the test, 200 μL of the adipose cell suspension was poured in each polystyrene test tube, 100 μL of the solution of the test substance (by dilution of 10 mg/mL dimethyl sulfoxide solution with KRH) was added thereto, and the obtained mixture was shaken and then cultured at 37° C. for 30 minutes. The sugar transportation activity was evaluated by measuring the quantity of 2-[^14C(U)]-deoxy-D-glucose incorporated per a unit time. Namely, 2-[^14C(U)]-deoxy-D-glucose was added to the adipose cell suspension after the pre-culture (the final concentration: 0.5 μCi/sample). 5 minutes after, cytochalasin B (final concentration: 10 μM) was added to the mixture to terminate the sugar transportation. After forming a dinonyl phthalate layer, the obtained mixture was centrifuged to separate the adipose cells from the buffer. The quantity of 2-[^14C(U)]-deoxy-D-glucose contained in the adipose cell layer was determined with a liquid scintillation counter to determine the quantity of the incorporated sugar. In this evaluation system, when insulin (100 nM) having the effect of reinforcing the sugar transportation was used, the effect was about 7 times as high as that obtained in the insulin-free control group.
The results of the evaluation of the sugar transportation activity obtained by using 100 μg/mL of the compound (I) of the present invention are shown in Table 3. The sugar transportation activity in Table 3 was evaluated on the basis of the reinforcing effect of insulin (100 nM). The sugar transportation activity A in Table 3 was determined in terms of the concentration (EC50: μg/mL) of a test compound, having a reinforcing effect corresponding to 50% on the basis of the reinforcing effect of insulin (100 nM) having a reinforcing effect of 100%.
The symbols in Table 3 are as follows: • No: Compound No. in Tables 1 and 2, and • A: sugar transportation activity.

| Compound | A: sugar transportation activity (EC50) [µg/mL] |
| --- | --- |
| COc1ccccc1[C@@H]1C2=C(CNC2=O)N[C@@H]2CCCC[C@H]2N1C(C)=O [Compound 1] | 1.3 |
| CCCC(=O)N1[C@@H]2CCCC[C@H]2NC2=C(C(=O)NC2)[C@H]1c1ccccc1OC [Compound 3] | 4.6 |
| COc1ccccc1[C@@H]1C2=C(CNC2=O)N[C@@H]2CCCC[C@H]2N1C(=O)C1CC1 [Compound 4] | 0.5 |
| COc1ccccc1[C@@H]1C2=C(CNC2=O)N[C@@H]2CCCC[C@H]2N1C(=O)C(F)(F)F [Compound 5] | 4.5 |
| COc1ccccc1[C@@H]1C2=C(CNC2=O)N[C@@H]2CCCC[C@H]2N1C(=O)C(F)(F)C(F)(F)F [Compound 7] | 9.5 |
| COc1ccccc1[C@@H]1C2=C(CNC2=O)N[C@@H]2CCCC[C@H]2N1C(=O)COc1ccccc1 [Compound 12] | 4.6 |
| COc1ccccc1[C@@H]1C2=C(CNC2=O)N[C@@H]2CCCC[C@H]2N1C(=O)Cc1ccccc1 [Compound 13] | 5 |
| CC=CC(=O)N1[C@@H]2CCCC[C@H]2NC2=C(C(=O)NC2)[C@H]1c1ccccc1OC [Compound 16] | 1.1 |
| COC(=O)CCC(=O)N1[C@@H]2CCCC[C@H]2NC2=C(C(=O)NC2)[C@H]1c1ccccc1OC [Compound 17] | 4.8 |
| COc1ccccc1[C@@H]1C2=C(CNC2=O)N[C@@H]2CCCC[C@H]2N1C(=O)CCCO [Compound 19] | 4.8 |
| COc1ccccc1[C@@H]1C2=C(CNC2=O)N[C@@H]2CCCC[C@H]2N1C(=O)CCNC(=O)OCc1ccccc1 [Compound 22] | 8 |
| COc1ccccc1[C@@H]1C2=C(CNC2=O)N[C@@H]2CCCC[C@H]2N1C(=O)CCN [Compound 23] | 8 |
| COCCC(=O)N1[C@@H]2CCCC[C@H]2NC2=C(C(=O)NC2)[C@H]1c1ccccc1OC [Compound 24] | 3.4 |
| COc1ccccc1[C@@H]1C2=C(CNC2=O)N[C@@H]2CCCC[C@H]2N1C(=O)CCc1ccccc1 [Compound 25] | 0.9 |
| COc1ccccc1CCC(=O)N1[C@@H]2CCCC[C@H]2NC2=C(C(=O)NC2)[C@H]1c1ccccc1OC [Compound 26] | 4 |
| COc1ccccc1[C@@H]1C2=C(CNC2=O)N[C@@H]2CCCC[C@H]2N1C(=O)CCc1ccc(F)c(F)c1 [Compound 27] | 4.2 |
| COc1ccccc1[C@@H]1C2=C(CNC2=O)N[C@@H]2CCCC[C@H]2N1C(=O)CCSC [Compound 28] | 2.6 |
| COc1ccccc1[C@@H]1C2=C(CNC2=O)N[C@@H]2CCCC[C@H]2N1C(=O)c1ccccn1 [Compound 33] | 10 |

| Compound | A: sugar transportation activity (EC50) [µg/mL] |
| --- | --- |
| COc1ccccc1[C@@H]1C2=C(CNC2=O)N[C@@H]2CCCC[C@H]2N1C(=O)c1ccncc1 [Compound 35] | 18 |
| COc1ccccc1[C@@H]1C2=C(CNC2=O)N[C@@H]2CCCC[C@H]2N1C(=O)c1cnccn1 [Compound 36] | 8.6 |
| COC(=O)N1[C@@H]2CCCC[C@H]2NC2=C(C(=O)NC2)[C@H]1c1ccccc1OC [Compound 37] | 6 |
| CCOC(=O)N1[C@@H]2CCCC[C@H]2NC2=C(C(=O)NC2)[C@H]1c1ccccc1OC [Compound 38] | 4.2 |
| COc1ccccc1[C@@H]1C2=C(CNC2=O)N[C@@H]2CCCC[C@H]2N1C(=O)OCc1ccccc1 [Compound 39] | 6 |
| COc1ccccc1[C@@H]1C2=C(CNC2=O)N[C@@H]2CCCC[C@H]2N1C(=O)Oc1ccccc1 [Compound 40] | 11 |
| CCNC(=O)N1[C@@H]2CCCC[C@H]2NC2=C(C(=O)NC2)[C@H]1c1ccccc1OC [Compound 41] | 3.6 |
| CCCNC(=O)N1[C@@H]2CCCC[C@H]2NC2=C(C(=O)NC2)[C@H]1c1ccccc1OC [Compound 42] | 7 |
| CCOc1ccccc1[C@@H]1C2=C(CNC2=O)N[C@@H]2CCCC[C@H]2N1C(=O)C(F)(F)F [Compound 49] | 5 |
| CC(=O)N1[C@@H]2CCCC[C@H]2NC2=C(C(=O)NC2)[C@H]1c1ccccc1OC(C)C [Compound 57] | 14 |
| CCC(=O)N1[C@@H]2CCCC[C@H]2NC2=C(C(=O)NC2)[C@H]1c1ccccc1OC(C)C [Compound 58] | 2 |
| COC(=O)N1[C@@H]2CCCC[C@H]2NC2=C(C(=O)NC2)[C@H]1c1ccccc1OC(C)C [Compound 60] | 4.8 |
| CC(=O)N1[C@@H]2CCCC[C@H]2NC2=C(C(=O)NC2)[C@H]1c1ccccc1OC1CC1 [Compound 61] | 0.9 |
| CCOCC(=O)N1[C@@H]2CCCC[C@H]2NC2=C(C(=O)NC2)[C@H]1c1ccccc1OCc1ccccc1 [Compound 63] | 4 |
| CC(=O)N1[C@@H]2CCCC[C@H]2NC2=C(C(=O)NC2)[C@H]1c1ccccc1OCc1ccccc1 [Compound 64] | 3.6 |
| CCOCC(=O)N1[C@@H]2CCCC[C@H]2NC2=C(C(=O)NC2)[C@H]1c1ccccc1O [Compound 65] | 1 |
| CC(=O)N1[C@@H]2CCCC[C@H]2NC2=C(C(=O)NC2)[C@H]1c1ccccc1O [Compound 66] | 3.7 |
| O=C1NCC2=C1[C@@H](c1ccccc1OC(F)(F)F)N(C(=O)CO)[C@@H]1CCCC[C@H]1N2 [Compound 68] | 2.7 |

Results, then the molecule that gave them:

| A: sugar transportation activity (EC50) [µg/mL] | Compound |
| --- | --- |
| 0.77 | CCC(=O)N1[C@@H]2CCCC[C@H]2NC2=C(C(=O)NC2)[C@H]1c1ccccc1OC [Compound 2] |
| 5.9 | COc1ccccc1[C@@H]1C2=C(CNC2=O)N[C@@H]2CCCC[C@H]2N1C(=O)COC(C)=O [Compound 9] |
| 2 | COCC(=O)N1[C@@H]2CCCC[C@H]2NC2=C(C(=O)NC2)[C@H]1c1ccccc1OC [Compound 10] |
| 2.2 | CCOCC(=O)N1[C@@H]2CCCC[C@H]2NC2=C(C(=O)NC2)[C@H]1c1ccccc1OC [Compound 11] |
| 5.5 | COc1ccccc1[C@@H]1C2=C(CNC2=O)N[C@@H]2CCCC[C@H]2N1C(=O)CC(C)=O [Compound 29] |
| 15 | CCOc1ccccc1[C@@H]1C2=C(CNC2=O)N[C@@H]2CCCC[C@H]2N1C(C)=O [Compound 46] |
| 1.9 | CCOc1ccccc1[C@@H]1C2=C(CNC2=O)N[C@@H]2CCCC[C@H]2N1C(=O)CC [Compound 47] |
| 1.3 | CCCC(=O)N1[C@@H]2CCCC[C@H]2NC2=C(C(=O)NC2)[C@H]1c1ccccc1OCC [Compound 48] |
| 13 | CCOc1ccccc1[C@@H]1C2=C(CNC2=O)N[C@@H]2CCCC[C@H]2N1C(=O)COC(C)=O [Compound 50] |
| 3.8 | CCOc1ccccc1[C@@H]1C2=C(CNC2=O)N[C@@H]2CCCC[C@H]2N1C(=O)CO [Compound 51] |
| 3.6 | CCOc1ccccc1[C@@H]1C2=C(CNC2=O)N[C@@H]2CCCC[C@H]2N1C(=O)COC [Compound 52] |
| 4 | CCOCC(=O)N1[C@@H]2CCCC[C@H]2NC2=C(C(=O)NC2)[C@H]1c1ccccc1OCC [Compound 53] |
| 1.5 | CCOc1ccccc1[C@@H]1C2=C(CNC2=O)N[C@@H]2CCCC[C@H]2N1C(=O)OC [Compound 54] |
| 7 | CCOC(=O)N1[C@@H]2CCCC[C@H]2NC2=C(C(=O)NC2)[C@H]1c1ccccc1OCC [Compound 55] |
| 12 | CCNC(=O)N1[C@@H]2CCCC[C@H]2NC2=C(C(=O)NC2)[C@H]1c1ccccc1OCC [Compound 56] |
| 2 | CCOCC(=O)N1[C@@H]2CCCC[C@H]2NC2=C(C(=O)NC2)[C@H]1c1ccccc1OC(C)C [Compound 59] |
